In patent US9243068B2, “Combination of SEMA-4D inhibitors and immunomodulators to inhibit tumors and metastases” (Vaccinex, Inc., priority 2013, dated 2016):

Test system: Colon26 tumor cells
Experiment: Colon26 tumor growth, combination with cyclophosphamide (Example 8)
Format: in vivo
Conditions: Colon26 in Balb/c mice; anti-SEMA4D 50 mg/kg IP weekly; cyclophosphamide 50 mg/kg IP days 12 and 20
Description: Experimental Design. 5×10^5 Colon26 tumor cells were implanted subcutaneously into the flank of female Balb/c mice. […] There were 20 mice per group. Tumors were measured with calipers 3×/week starting 5 days post implant. Animals were sacrificed when tumor volume reached 1000 mm^3.
Tumor growth was measured by calipers and measurements were used to calculate tumor volume using the formula (w^2×I)/2, where w=width, smaller measurement, and l=length, in mm, of the tumor.
Regression is the lack of palpable tumor, defined by a tumor measuring <50 mm^3 for at least two consecutive measurements.

For `O=P1(N(CCCl)CCCl)NCCCO1` (stereo not shown) [cyclophosphamide], the “Tumor Growth Delay (TGD)” value was 96%.
